Reference: PMC10287695, “Non-covalent inhibitors of thioredoxin glutathione reductase with schistosomicidal activity in vivo” (Nature Communications, 2023)
Where “and” joins values, the source holds several entries; their conditions need not be identical. Identical values can stand only once.

Tests used:
TGR [1] = target: T1, TGR (Schistosoma mansoni, UniProt Q962Y6); assay: Reversibility by jump dilution; assay type: biochemical; settings: for % Activity (ID list), D0 / % Inhibition (ID list), D0: D0: diluted 1:100, activity determined immediately; for % Activity (ID list), D0 / % Inhibition (ID list), D0 / % Activity (ID list), D60 / % Inhibition (ID list), D60 / % Activity (ID list) / % Inhibition (ID list): list for plotting; for % Activity (ID list), D60 / % Inhibition (ID list), D60: D60: diluted 1:100, activity determined after 60 min; for % Activity, 0 min / Inhibitor (rate), 0 min: [0, D0]: 15 min preincubation inhibitor + TGR + NADPH, diluted 1:100, then activity determined immediately; for % Activity, 0 min / % Activity, 60 min / % Activity, -15: relative to DMSO; for % Activity, 60 min / Inhibitor (rate), 60 min: [60, D60]: 15 min preincubation inhibitor + TGR + NADPH, diluted 1:100, then activity determined after 60 min; for Inhibitor (rate), -15 / % Activity, -15: [-15]: 15 min preincubation inhibitor + TGR + NADPH, then activity determined, replicates; for Inhibitor (rate), -15 / Inhibitor (rate), 0 min / Inhibitor (rate), 60 min: raw rate; for % Activity (ID list) / % Inhibition (ID list): before dilution (-15)
T1 construct: made in house
T1 sequence (Q962Y6 1-598): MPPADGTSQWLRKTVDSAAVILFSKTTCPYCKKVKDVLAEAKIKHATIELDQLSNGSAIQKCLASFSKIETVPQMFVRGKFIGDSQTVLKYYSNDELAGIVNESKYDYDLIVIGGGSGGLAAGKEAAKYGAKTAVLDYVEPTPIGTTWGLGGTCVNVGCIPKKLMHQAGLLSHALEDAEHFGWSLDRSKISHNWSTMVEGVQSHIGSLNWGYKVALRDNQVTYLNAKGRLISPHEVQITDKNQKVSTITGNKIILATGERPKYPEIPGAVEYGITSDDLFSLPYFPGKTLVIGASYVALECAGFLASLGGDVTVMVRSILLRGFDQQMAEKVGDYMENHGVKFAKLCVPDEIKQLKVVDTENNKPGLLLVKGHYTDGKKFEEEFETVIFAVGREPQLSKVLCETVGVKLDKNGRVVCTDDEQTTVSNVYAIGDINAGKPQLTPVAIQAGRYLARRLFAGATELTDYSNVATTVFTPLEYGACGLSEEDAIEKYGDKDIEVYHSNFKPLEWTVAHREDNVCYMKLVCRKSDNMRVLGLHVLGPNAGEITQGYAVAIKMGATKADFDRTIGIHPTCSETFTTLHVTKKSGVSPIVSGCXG
Method: A reaction of 370 nM TGR, 100 µM NADPH, and 250 µM inhibitor was incubated for 15 min at room temperature. A 100x dilution of the reaction was made and the activity was determined immediately and after 60 min.

TGR [2] = target: T2, TGR (Schistosoma mansoni, UniProt Q962Y6, X597U); assay: NADPH consumption (oxidase activity); assay type: biochemical, S. mansoni; settings: replicates
T2 construct: made in house
Method: TRi-1, Stattic (both at 50 µM) and AF (20 µM) were incubated with 1 ml of 500 nM TGR and 100 µM NADPH in TGR reaction buffer for 30 min. The samples were desalted using a Zeba spin desalting column (Thermo Fisher Scientific) and 100 µl of the desalted sample was combined with 100 µl of 100 µM NADPH. NADPH consumption was monitored at 340 nm in triplicate. Compounds 1, 4, 6, and 7 (50 µM) were tested in the same fashion without the desalting step and with a first incubation step of 30 min for 6 and 7 and 2 h for 1 and 4.

S. japonicum adult worms = assay: Schistosomicidal activity ex vivo, S. japonicum adult worms; assay type: cell-based; settings: for LD50 ex vivo S. japonicum adult: 48 h exposure
Method: Three-week old, female Swiss-Webster mice obtained from the Charles River were housed in the Comparative Research Center of Rush University Medical Center. Mice were infected by percutaneous tail exposure to about 200 S. mansoni or 50 S. japonicum cercaria for adult worms and about 1000 cercaria for juvenile S. mansoni worms through natural transdermal penetration of the cercariae for 1 h[81].
DMSO formulated compounds were diluted with phenol red free M199 medium or RPMI medium for NTS or juvenile and adult worms, respectively, at <1% DMSO final concentrations. NTS, juvenile and adult worms from overnight cultures were tested against compounds in triplicate. Controls were treated with DMSO alone or 5 µM AF as a positive control in appropriate medium. […] Schistosome viabilities in the presence of the compounds were assessed using this formula: % Viability = Averages of Test / Averages of DMSO Control x 100.

TGR [3] = target: T1, TGR; assay: Time dependence of inhibition; assay type: biochemical; design: avg % inhib, 0.5 hr / avg % inhib, 1 hr / avg % inhib, 2 hr / avg % inhib, 3 hr / avg % inhib, 6 hr / avg % inhib, 24 hr: tested at 50 µM; settings: panel d Time Dependence; for avg % inhib, 0.5 hr / avg % inhib, 1 hr / avg % inhib, 2 hr / avg % inhib, 3 hr / avg % inhib, 6 hr / avg % inhib, 24 hr: average; for % inhib, 0.5 hr / % inhib, 1 hr / % inhib, 2 hr / % inhib, 3 hr / % inhib, 6 hr / % inhib, 24 hr: replicates
Method: TGR was incubated at room temperature (up to 6 h) and at 4 °C for 6 to 24 h with 50 µM inhibitor and 100 µM NADPH for the indicated times. Then DTNB (3 mM) and NADPH (100 µM) were added, and the reaction was monitored at A412 for 5 min. The assay was done in triplicate.

TGR [4] = target: T1, TGR; assay: Thermal shift assay (TSA); assay type: binding; design: key to Avg. Tm / Tm, replicate 1-3: Tm in °C, from a 25–95 °C melt curve; settings: for Avg. Tm / Tm, replicate 1-3: TGR + 100 µM compound; for Avg. Tm, + 500 µM NADPH / Tm, replicate 1-3, + 500 µM NADPH: TGR + 100 µM compound + 500 µM NADPH; for Tm, replicate 1-3, + 500 µM NADPH / Tm, replicate 1-3: single replicates; for effect on Tm of oxidized TGR: without NADPH
Method: Samples were prepared by using a final concentration of 0.25 mg/ml TGR diluted in TGR reaction buffer to the desired volume. To evaluate reduced TGR, 500 µM NADPH was added. […] After the preincubation period, 20 µL samples were pipetted into a BioRad un-skirted PCR 96 well plate and sealed with MicroAmp^TM Optical Adhesive film. The plate was then centrifuged for 5 min at 1000 × g. TSA was carried out using a BioRad CFX Connect qPCR instrument with a melt curve setting of 25 − 95 °C, in increments of 0.5 °C/10 seconds. The SYBR green channel was used to detect fluorescence as the wavelength of flavin fluorescence overlaps with that of SYBR green. BioRad CFX Maestro 5.2 was used to analyze TSA data.

Row | Compound | % Activity (ID list), D0 (TGR [1]) | % Inhibition (ID list), D0 (TGR [1]) | % Activity (ID list), D60 (TGR [1]) | % Inhibition (ID list), D60 (TGR [1]) | % Activity, 0 min (TGR [1]) | % Activity, 60 min (TGR [1]) | Inhibitor (rate), -15 (TGR [1]) | % Activity, -15 (TGR [1]) | % Activity (ID list) (TGR [1]) | % Inhibition (ID list) (TGR [1]) | LD50 ex vivo S. japonicum adult (S. japonicum adult worms) [µM] | Inhibitor (rate), 0 min (TGR [1]) | Inhibitor (rate), 60 min (TGR [1]) | rate, 0.5 hr (TGR [3]) | avg % inhib, 0.5 hr (TGR [3]) [%] | % inhib, 0.5 hr (TGR [3]) | rate, 1 hr (TGR [3]) | avg % inhib, 1 hr (TGR [3]) [%] | % inhib, 1 hr (TGR [3]) | rate, 2 hr (TGR [3]) | further results
1 | CC(=O)OC[C@H]1O[C@@H]([S-])[C@H](OC(C)=O)[C@@H](OC(C)=O)[C@@H]1OC(C)=O.CCP(CC)CC.[Au+] [AF, auranofin, reference compound] | 1.9% and -0.049% | 98.1% and 100.0% | 3.7% and -3.0% and -2.8% | 96.3% and 103.0% and 102.8% | 1.94% and 1.91% and -0.04934% | 3.69% and -3.0493% and -2.833% | 0.001018 and 0.001002 and 0.001033 | 0.7444% and 0.7656% and 0.7594% | 0.744% and 0.8% and 0.759% | 100.0% | – | – | – | – | – | – | – | – | – | – | reversibility of TGR inhibition (TGR [1]; 250 µM inhibitor, 100-fold jump dilution): irreversible; NADPH consumption (rate/ΔOD340) (TGR [2]): -0.0002869 and -0.0002715 and -0.0002247
2 | CCc1ccccc1-c1nc(CN[C@@H]2C[C@@H]3C[C@H]([C@H]2C)C3(C)C)c(C)o1 [Compound 2] | – | – | – | – | – | – | – | – | – | – | 11.1 ± 1.35 | – | – | – | – | – | – | – | – | – | viability at 5 µM (S. japonicum adult worms; Schistosoma japonicum, S. japonicum adult worms, 48 hr, Conc. 5 µM): 52.5%; viability at 15 µM (S. japonicum adult worms; Schistosoma japonicum, S. japonicum adult worms, 48 hr, Conc. 15 µM): 30.6%; viability at 30 µM (S. japonicum adult worms; Schistosoma japonicum, S. japonicum adult worms, 48 hr, Conc. 30 µM): 3.64%
3 | Cc1oc(-c2ccccc2)nc1CN[C@@H]1C[C@@H]2C[C@H]([C@H]1C)C2(C)C [Compound 3] | 107.0% and 101.9% and 120.0% | – | 112.2% | -12.2% and -2.4% and -4.0% | 106.977% and 101.851% and 120.346% | 112.121% and 113.417% and 109.021% | 0.01322 and 0.01449 | 38.3633% and 40.1163% | 38.4% and 40.1% | 61.6367% and 59.8837% and 55% | 13.9 ± 1.45 | 0.04937 and 0.04787 and 0.05217 | 0.04847 and 0.05055 and 0.05088 | 0.04131 and 0.04323 and 0.04147 | 24.9564 | 25.1766% and 23.3647% and 26.3279% | 0.03461 and 0.03399 and 0.03516 | 32.5613 | 32.6392% and 32.4657% and 32.5791% | 0.02942 and 0.0272 and 0.02813 | avg % inhib, 2 hr (TGR [3]): 39.6519%; % inhib, 2 hr (TGR [3]): 35.4116% and 41.9052% and 41.639%; rate, 3 hr (TGR [3]): 0.02162 and 0.0222 and 0.02273; avg % inhib, 3 hr (TGR [3]): 45.1094%; % inhib, 3 hr (TGR [3]): 45.8417% and 44.831% and 44.6555%; rate, 6 hr (TGR [3]): 0.01203 and 0.009487 and 0.01329; avg % inhib, 6 hr (TGR [3]): 55.8948%; % inhib, 6 hr (TGR [3]): 54.3454% and 63.1143% and 50.2247%; rate, 24 hr (TGR [3]): 0.008207 and 0.008188 and 0.0092; avg % inhib, 24 hr (TGR [3]): 56.6355%; % inhib, 24 hr (TGR [3]): 56.206% and 58.6882% and 55.0122%; Avg. Tm (TGR [4]): 73.5; Avg. Tm, + 500 µM NADPH (TGR [4]): 73.67; Tm, replicate 1-3, + 500 µM NADPH (TGR [4]): 74 and 73.5 (2×); Tm, replicate 1-3 (TGR [4]; in °C (unit assumed)): 73.5; effect on Tm of oxidized TGR (TGR [4]): Neither fast 6-9 nor slow TGR inhibitors 1, 3, 5 affected the Tm
4 | Cc1oc(-c2ccc3ccccc3c2)nc1CNC1CCCCCC1 [Compound 5] | 94.7% and 95.5% and 104.1% | 5.3% and 4.5% and -4.1% | 114.3% and 110.2% | -11.2% and -14.3% and -10.2% | 94.6912% and 95.4681% and 104.129% | 111.196% and 114.27% and 110.156% | 0.01816 and 0.01807 and 0.01832 | 52.6988% and 50.0277% and 51.6493% | 52.7% and 50.0% and 51.6% | 47.3% and 50.0% and 48.4% | – | 0.0437 and 0.04487 and 0.04514 | 0.04807 and 0.05093 and 0.05141 | 0.06403 and 0.06491 and 0.06611 | 19.3871 | 19.4895% and 20.5216% and 18.1503% | 0.05507 and 0.05598 and 0.05641 | 24.7276 | 25.2173% and 23.9092% and 25.0565% | 0.04485 and 0.04477 and 0.04629 | avg % inhib, 2 hr (TGR [3]): 32.9849%; % inhib, 2 hr (TGR [3]): 32.4141% and 34.3548% and 32.1858%; rate, 3 hr (TGR [3]): 0.03515 and 0.03538 and 0.0359; avg % inhib, 3 hr (TGR [3]): 39.3918%; % inhib, 3 hr (TGR [3]): 39.6774% and 39.4903% and 39.0078%; rate, 6 hr (TGR [3]): 0.02164 and 0.02197 and 0.02345; avg % inhib, 6 hr (TGR [3]): 53.9938%; % inhib, 6 hr (TGR [3]): 54.1525% and 54.5887% and 53.2403%; rate, 24 hr (TGR [3]): 0.00977 and 0.01005 and 0.01035; avg % inhib, 24 hr (TGR [3]): 73.1913%; % inhib, 24 hr (TGR [3]): 73.884% and 73.0491% and 72.6408%; Avg. Tm (TGR [4]): 73.5; Avg. Tm, + 500 µM NADPH (TGR [4]): 73.5; Tm, replicate 1-3, + 500 µM NADPH (TGR [4]; in °C (unit assumed)): 73.5; Tm, replicate 1-3 (TGR [4]; in °C (unit assumed)): 73.5; effect on Tm of oxidized TGR (TGR [4]): Neither fast 6-9 nor slow TGR inhibitors 1, 3, 5 affected the Tm
